The text below walks through data of ChEMBL document CHEMBL1143157, “New fused benzazepine as selective D3 receptor antagonists. Synthesis and biological evaluation. Part 2: [g]-fused and hetero-fused systems” (Bioorg Med Chem Lett, 2008).

Series [1] can be described thus: in vivo. The note with it: rat, brain and blood, iv.
Series [2] in a line: in vivo. To be noted: rat, whole blood.
Series [3] is described as follows: in vivo. To be noted: rat.
The nature of series [4]: in vivo. The note with it: rat, po.
The nature of series [5]: in vivo. To be noted: rat. The source holds these as a separate data set.

Compound `Cc1ccc2c(-c3nnc(SCCCN4CCc5ccc6nc(C(C)(F)F)oc6c5CC4)n3C)cccc2n1` showed a concentration ratio (Kp) at 1 h in series [1] of 4. This compound displayed a clearance in series [2] of 43 mL/min/kg. This compound registered a Vd in series [3] of 3.31 L/kg. Also, the bioavailability in series [4] was 8%.

Regarding `Cc1ncoc1-c1nnc(SCCCN2CCc3ccc4oc(C(F)(F)F)nc4c3CC2)n1C`, the half-life in series [5] was 0.6 h. The compound also gave a partition ratio (Kp) at 1 h in series [1] of 0.8. The compound also registered a clearance in series [2] of 35 mL/min/kg. In series [3], the distribution volume (Vd) is 1.6 L/kg. The bioavailability in series [4] worked out at 63%.

In the case of `Cc1ccc2c(-c3nnc(SCCCN4CCc5ccc6oc(C)nc6c5CC4)n3C)cccc2n1`, in series [5], the half-life was 1.7 h. Moreover, the Kp at 1 h in series [1] was 2.5. This compound also yielded a clearance in series [2] of 48 mL/min/kg. The bioavailability in series [4] came out at 15%.

In turn, `CCc1nc2c3c(ccc2o1)CCN(CCCSc1nnc(-c2ocnc2C)n1C)CC3` showed a half-life in series [5] of 1.9 h. The Kp at 1 h in series [1] stood at 0.1. The compound also came in with a clearance in series [2] of 5 mL/min/kg. Also, in series [3], the Vd turned out to be 0.61 L/kg. This compound also displayed a bioavailability in series [4] of 73%.

As for `Cc1ncoc1-c1nnc(SCCCN2CCc3ccc4oc(C(C)(F)F)nc4c3CC2)n1C`, the half-life in series [5] is 1.2 h. The same compound registered a Kp at 1 h in series [1] of 0.2. In addition, the clearance in series [2] was found to be 9 mL/min/kg. Further, the Vd in series [3] was 0.8 L/kg. For the same compound, the bioavailability in series [4] was found to be 54%.
